Values after ≈ are worked out from the molar mass of the structure shown.
How the values were obtained:
Type in all cases: functional
Staphylococcus aureus = assay: Antimicrobial activity against Staphylococcus aureus
Enterococcus faecalis = assay: Antimicrobial activity against Enterococcus faecalis
Bacillus subtilis = assay: Antimicrobial activity against Bacillus subtilis
Escherichia coli = assay: Antimicrobial activity against Escherichia coli

MIC (Staphylococcus aureus): 50 µg/mL (≈ 324 µM)
MIC (Enterococcus faecalis): 50 µg/mL (≈ 324 µM)
MIC (Bacillus subtilis): 50 µg/mL (≈ 324 µM)
MIC (Escherichia coli): 50 µg/mL (≈ 324 µM)
Compound: C/C=C/C1=CC(=O)[C@@H](O)[C@@H]1O [TERREIN]
